Data on 42 compounds can be found in PubChem BioAssay AID1996.

Values after ≈ are worked out from the molar mass of the structure shown.

The conditions of this data set: buffer; pH 7.4; 200.0 µM.
By solubility (kinetic) is commonly meant solubility judged after dilution from a stock solution rather than from solid. Regarding `CN1CCN(CCOc2ccc(Cc3ccccc3)cc2)CC1.Cl`, the kinetic solubility is 40.4 µg/mL.
The same measure for `O=C(c1ccccc1)c1cc2cc(Cl)ccc2[nH]1`: less than 0.5 µg/mL.
The same measure for `O=C1C2C3C=CC(C2C(=O)N1CCO)C1C(=O)N(CCO)C(=O)C31` (configuration not stated): greater than 50.1 µg/mL.
Take `N#Cc1cn(-c2cccc(C(F)(F)F)c2)c(=O)[nH]c1=O`: the solubility (kinetic) was greater than 42.2 µg/mL.
The same measure for `CCOCCCNCc1cc(Br)ccc1OCC.Cl`: greater than 52.9 µg/mL; for `Cn1c(=O)c2c(ncn2CC(=O)Nc2nccs2)n(C)c1=O`: 26.1 µg/mL (≈ 81.5 µM); for `COc1ccc2c(c1)CCc1c(C(=O)NCC(C)C)noc1-2`: 1.5 µg/mL (≈ 4.99 µM).
With `Cc1ccc(C)c(N(CC(=O)N2CCCCCC2)S(C)(=O)=O)c1` the figure was 46.9 µg/mL (≈ 139 µM).
The same measure for `C=C(C)CCOC(=O)C(CC(=O)O)NCc1ccco1` (configuration not stated): greater than 42.2 µg/mL.
`Cc1ccc(/C=C/C(=O)Oc2ccc(C#N)cc2)o1` yielded a solubility (kinetic) of less than 0.5 µg/mL.
With `O=C(Nc1ccc(Cl)cc1C(=O)N1CCCCC1)c1ccco1` the figure was 46.6 µg/mL (≈ 140 µM).
With `Fc1ccccc1CNC(=S)NCc1ccc(Cl)cc1` the figure was 3.3 µg/mL (≈ 10.7 µM); with `COc1ccc(S(=O)(=O)Nc2ccccn2)cc1C`, greater than 41.7 µg/mL; with `COc1ccccc1CC(=O)NCc1csc(-c2cccs2)n1`, 46 µg/mL (≈ 134 µM).
With `Clc1ccc(COn2ccnc2)cc1Cl` the figure was greater than 36.5 µg/mL; with `Nc1ccccc1C(=O)NC1CCCNC1=O` (configuration not stated), greater than 35 µg/mL.
As to `COCCNC(=O)Cn1nc(C)c([N+](=O)[O-])c1C`, the solubility (kinetic) was greater than 38.4 µg/mL.
With `CCN(CC)c1cccc(OC(=O)c2cccnc2Cl)c1` the figure was 6.8 µg/mL (≈ 22.3 µM).
On to `Cc1cc(NC(=O)COc2ccc3ccccc3c2Br)no1`, for which the kinetic solubility amounted to 14.4 µg/mL (≈ 39.9 µM).
On to `Cc1cc(NC(=O)/C=C\C(=O)O)c([N+](=O)[O-])cc1C`, for which the kinetic solubility was determined as 39.4 µg/mL (≈ 149 µM).
`O=C(Nc1ccccc1C(=O)NCCCN1CCOCC1)c1ccccc1` registered a kinetic solubility greater than 55.1 µg/mL.
With `C/C(=N\OCC(=O)NC(C)C)c1cccs1` the figure was 32.5 µg/mL (≈ 135 µM); with `O=C(NCC(=O)N1CCCC(C(F)(F)F)C1)c1ccco1` (configuration not stated), greater than 45.6 µg/mL; with `CCOc1ccc(NC(=O)COC(=O)c2ccc3c(c2)OCO3)cc1`, 4 µg/mL (≈ 11.7 µM).
Take `Cc1cccc(C)c1NC(=O)c1ccc2c(c1)CCN2S(C)(=O)=O`: the kinetic solubility amounted to 8.3 µg/mL (≈ 24.1 µM).
With `COc1ccc2c(c1)CCc1c-2nc2ccccc2c1N1CCOCC1` the figure was 5.5 µg/mL (≈ 15.9 µM).
With `Nc1ccc(C(=O)O)cc1` the figure was greater than 20.6 µg/mL.
The same measure for `S=c1[nH]c2ccccc2[nH]1`: greater than 22.5 µg/mL; for `O=C(NCc1ccccc1)c1ccccc1-c1nc2ccccc2[nH]1`: 2.2 µg/mL (≈ 6.72 µM); for `O=C(COc1cc(Cl)ccc1Cl)Nc1ccc2[nH]c(=O)[nH]c2c1`: 2.7 µg/mL (≈ 7.67 µM).
Consider `O=C(COC(=O)/C=C/c1ccco1)Nc1ccccc1`, for which the solubility (kinetic) is 13.5 µg/mL (≈ 49.8 µM).
With `O=C(CCCNC(=O)c1ccc(Cl)cc1)Nc1nccs1` the figure was 10.3 µg/mL (≈ 31.8 µM).
`CC(=O)c1cc(C#N)c(SCc2ccccn2)nc1C` yielded a kinetic solubility of 10.2 µg/mL (≈ 36 µM).
The same measure for `COc1ccc2nc(/N=C/c3cccc(OC)c3O)sc2c1`: greater than 47.2 µg/mL; for `O=C(Cc1ccc(Cl)cc1)NCc1nc(-c2ccccc2)no1`: 1.9 µg/mL (≈ 5.8 µM).
With `CC(C)CN1C(=O)C(=Nc2cccnc2)c2ccccc21` the figure was greater than 41.9 µg/mL; with `Cc1cc(C)c[n+](CC(=O)c2ccccc2)c1.[Br-]`, 43.8 µg/mL.
The same measure for `COc1ccc(C(C)=O)cc1Cc1c(O)[nH]c(=S)[nH]c1=O`: greater than 46 µg/mL; for `COc1ccc(C(=O)NCCNC(=O)c2ccc(C)nc2)cc1`: greater than 47 µg/mL; for `CC(=O)Nc1ccc2c(c1)nc(C)n2Cc1ccccc1`: greater than 41.9 µg/mL.
`CC(=O)c1c(OCC(=O)N(C)C2CCCCC2)ccc2c(C)cc(=O)oc12` registered a solubility (kinetic) greater than 55.7 µg/mL.
The same measure for `Clc1nc(CN2CCOCC2)nc2sc3c(c12)CCC3`: 44.5 µg/mL (≈ 144 µM).
